From ChEMBL document CHEMBL4699634, “Series of Novel and Highly Potent Cyclic Peptide PCSK9 Inhibitors Derived from an mRNA Display Screen and Optimized via Structure-Based Design” (J Med Chem, 2020)
Numbered stars: 1 amine (or outer) side, 2 acyl side, 3 side chain; on linkers, the order of the positions; unused ones are H or OH. Bridge positions count the residues as written; N and C are the ends. Square brackets hold non-standard residues; d marks the D form. Peptide text beside a SMILES is read from it. ξ: configuration not given here. Trp(5-F) = N[C@@H](Cc1c[nH]c2ccc(F)cc12)C(=O)O; Trp(7-aza) = N[C@@H](Cc1c[nH]c2ncccc12)C(=O)O; NMePhe(4-F) = CN[C@@H](Cc1ccc(F)cc1)C(=O)O; Bip = N[C@@H](Cc1ccc(-c2ccccc2)cc1)C(=O)O; NMeW = CN[C@@H](Cc1c[nH]c2ccccc12)C(=O)O; mXylylene = c1cc(C[*:1])cc(C[*:2])c1; Tle = CC(C)(C)[C@H](N)C(=O)O; Nva = CCC[C@H](N)C(=O)O; ξNle = CCCCC(N)C(=O)O; Mpa = O=C(O)CCS

Target: PCSK9/LDLR (Homo sapiens, UniProt Q8NBP7)
Assay: Inhibition of avi-tagged-biotinylated human PCSK9 interaction with His-tagged human LDLR EGFa domain by LANCE Ulight Streptavidin based TR-FRET assay
Type: protein assay

Sequence of PCSK9/LDLR (Q8NBP7 31-152 limits assumed): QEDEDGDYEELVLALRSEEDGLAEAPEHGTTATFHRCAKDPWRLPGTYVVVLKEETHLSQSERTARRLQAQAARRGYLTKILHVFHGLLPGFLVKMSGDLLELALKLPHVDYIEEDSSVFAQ
Sequence of PCSK9/LDLR (Q8NBP7 153-692 limits assumed): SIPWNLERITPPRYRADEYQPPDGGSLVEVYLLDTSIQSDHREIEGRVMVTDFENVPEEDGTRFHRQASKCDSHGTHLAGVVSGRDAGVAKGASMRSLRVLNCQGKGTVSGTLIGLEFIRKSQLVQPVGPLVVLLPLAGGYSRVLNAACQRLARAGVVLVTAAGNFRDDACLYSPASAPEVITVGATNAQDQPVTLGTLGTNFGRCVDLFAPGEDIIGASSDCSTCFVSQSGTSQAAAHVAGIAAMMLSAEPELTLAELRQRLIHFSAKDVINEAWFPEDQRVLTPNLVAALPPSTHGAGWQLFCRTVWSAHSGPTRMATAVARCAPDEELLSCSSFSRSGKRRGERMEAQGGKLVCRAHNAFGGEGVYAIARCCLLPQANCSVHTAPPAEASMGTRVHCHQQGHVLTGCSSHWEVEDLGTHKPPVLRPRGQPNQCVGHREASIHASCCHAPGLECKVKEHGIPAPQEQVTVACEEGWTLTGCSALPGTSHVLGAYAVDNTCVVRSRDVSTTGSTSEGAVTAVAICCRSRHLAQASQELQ
Sequence of PCSK9/LDLR (P01130 22-860 partner limits assumed): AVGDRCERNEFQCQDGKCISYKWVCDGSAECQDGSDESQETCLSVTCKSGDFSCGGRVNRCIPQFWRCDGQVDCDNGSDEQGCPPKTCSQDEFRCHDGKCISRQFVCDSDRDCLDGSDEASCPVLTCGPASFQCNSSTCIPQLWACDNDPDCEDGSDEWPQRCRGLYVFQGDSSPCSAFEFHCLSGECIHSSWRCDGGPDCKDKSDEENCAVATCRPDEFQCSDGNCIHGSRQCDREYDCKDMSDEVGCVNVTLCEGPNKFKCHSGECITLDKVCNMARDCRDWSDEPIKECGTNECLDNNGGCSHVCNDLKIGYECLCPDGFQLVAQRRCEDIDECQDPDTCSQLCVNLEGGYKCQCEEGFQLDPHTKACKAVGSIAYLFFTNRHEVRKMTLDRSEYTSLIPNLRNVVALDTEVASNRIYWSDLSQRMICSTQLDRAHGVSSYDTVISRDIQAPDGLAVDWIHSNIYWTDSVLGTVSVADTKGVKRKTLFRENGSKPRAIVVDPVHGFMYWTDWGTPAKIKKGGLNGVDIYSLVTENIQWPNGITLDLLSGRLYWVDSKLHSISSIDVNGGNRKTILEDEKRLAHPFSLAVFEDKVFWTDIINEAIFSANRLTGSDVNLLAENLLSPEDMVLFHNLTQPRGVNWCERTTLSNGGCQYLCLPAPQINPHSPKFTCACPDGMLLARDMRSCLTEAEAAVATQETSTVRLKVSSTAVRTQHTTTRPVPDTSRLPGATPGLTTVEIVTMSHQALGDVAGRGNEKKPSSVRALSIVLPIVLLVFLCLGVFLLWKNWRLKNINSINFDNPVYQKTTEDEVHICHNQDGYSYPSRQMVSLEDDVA

| SMILES | Ki |
| --- | --- |
| NCCCC[C@@H]1NC(=O)CCSCc2cccc(c2)CSC[C@H](C(N)=O)NC(=O)[C@@H]2CCCN2C(=O)[C@H](Cc2ccc(O)cc2)NC(=O)[C@H](Cc2cnc[nH]2)NC(=O)[C@H](CC(=O)O)NC(=O)[C@H](Cc2c[nH]c3ccc(F)cc23)NC(=O)[C@H](Cc2c[nH]c3ccc(F)cc23)NC(=O)CNC1=O | 2010 nM |
| C[C@H](O)[C@H]1NC(=O)[C@H](CCCCN)NC(=O)CCSCc2cccc(c2)CSCCNC(=O)[C@]2(C)CCCN2C(=O)[C@H](Cc2ccc(O)cc2)NC(=O)[C@H](Cc2cnc[nH]2)NC(=O)[C@H](CC(=O)O)NC(=O)[C@H](Cc2c[nH]c3ccc(F)cc23)NC(=O)[C@H](Cc2c[nH]c3ccc(F)cc23)NC1=O | 26.9 nM |
| NCCCC[C@@H]1NC(=O)CCSCc2cccc(c2)CSC[C@@H](C(N)=O)NC(=O)[C@H]2CCCN2C(=O)[C@H](Cc2ccc(O)cc2)NC(=O)[C@H](Cc2cnc[nH]2)NC(=O)[C@H](CC(=O)O)NC(=O)[C@H](Cc2c[nH]c3ccc(F)cc23)NC(=O)[C@H](Cc2c[nH]c3ccc(F)cc23)NC(=O)CNC1=O | > 50000 nM |
| NCCCC[C@@H]1NC(=O)CCSCc2cccc(c2)CSC[C@@H](C(N)=O)NC(=O)[C@@H]2CCCN2C(=O)[C@@H](Cc2ccc(O)cc2)NC(=O)[C@H](Cc2cnc[nH]2)NC(=O)[C@H](CC(=O)O)NC(=O)[C@H](Cc2c[nH]c3ccc(F)cc23)NC(=O)[C@H](Cc2c[nH]c3ccc(F)cc23)NC(=O)CNC1=O | > 48000 nM |
| NCCCC[C@@H]1NC(=O)CCSCc2cccc(c2)CSC[C@@H](C(N)=O)NC(=O)[C@@H]2CCCN2C(=O)[C@H](Cc2ccc(O)cc2)NC(=O)[C@H](Cc2cnc[nH]2)NC(=O)[C@H](CC(=O)O)NC(=O)[C@@H](Cc2c[nH]c3ccccc23)NC(=O)[C@H](Cc2c[nH]c3ccc(F)cc23)NC(=O)CNC1=O | > 48000 nM |
| NCCCC[C@H]1NC(=O)CCSCc2cccc(c2)CSC[C@@H](C(N)=O)NC(=O)[C@@H]2CCCN2C(=O)[C@H](Cc2ccc(O)cc2)NC(=O)[C@H](Cc2cnc[nH]2)NC(=O)[C@H](CC(=O)O)NC(=O)[C@H](Cc2c[nH]c3ccc(F)cc23)NC(=O)[C@H](Cc2c[nH]c3ccc(F)cc23)NC(=O)CNC1=O | 16200 nM |
| NCCCC[C@@H]1NC(=O)CCSCc2cccc(c2)CSC[C@@H](C(N)=O)NC(=O)[C@@H]2CCCN2C(=O)[C@H](Cc2ccc(O)cc2)NC(=O)[C@@H](Cc2cnc[nH]2)NC(=O)[C@H](CC(=O)O)NC(=O)[C@H](Cc2c[nH]c3ccc(F)cc23)NC(=O)[C@H](Cc2c[nH]c3ccc(F)cc23)NC(=O)CNC1=O | > 48000 nM |
| NCCCC[C@@H]1NC(=O)CCSCc2cccc(c2)CSC[C@@H](C(N)=O)NC(=O)[C@@H]2CCCN2C(=O)[C@H](Cc2ccc(O)cc2)NC(=O)[C@H](Cc2cnc[nH]2)NC(=O)[C@H](CC(=O)O)NC(=O)[C@H](Cc2c[nH]c3ccc(F)cc23)NC(=O)[C@@H](Cc2c[nH]c3ccccc23)NC(=O)CNC1=O | > 48000 nM |
| NCCCC[C@@H]1NC(=O)CCSCc2cccc(c2)CSC[C@@H](C(N)=O)NC(=O)[C@@H]2CCCN2C(=O)[C@H](Cc2ccc(O)cc2)NC(=O)[C@H](Cc2cnc[nH]2)NC(=O)[C@@H](CC(=O)O)NC(=O)[C@H](Cc2c[nH]c3ccc(F)cc23)NC(=O)[C@H](Cc2c[nH]c3ccc(F)cc23)NC(=O)CNC1=O | > 48000 nM |
| C[C@@H]1NC(=O)CCSCc2cccc(c2)CSCCNC(=O)[C@]2(C)CCCN2C(=O)[C@H](Cc2ccc(O)cc2)NC(=O)[C@H](Cc2cnc[nH]2)NC(=O)[C@H](CC(=O)O)NC(=O)[C@H](Cc2c[nH]c3ccc(F)cc23)NC(=O)[C@H](Cc2c[nH]c3ccc(F)cc23)NC(=O)[C@@H](CCCCN)NC1=O | 48.1 nM |
| CC(=O)N[C@H]1CSCc2cccc(c2)CSC[C@@H](C(N)=O)NC(=O)[C@@H]2CCCN2C(=O)[C@H](Cc2ccc(O)cc2)NC(=O)[C@H](Cc2c[nH]cn2)NC(=O)[C@H](CC(=O)O)NC(=O)[C@H](Cc2c[nH]c3ccc(F)cc23)NC(=O)[C@H](Cc2c[nH]c3ccccc23)NC(=O)CNC(=O)[C@H](CCCCN)NC1=O (Ac-CKGW[Trp(5-F)]DHYPC-NH2; linker 1-10 via mXylylene) | 103 nM |
| CC(=O)N[C@H]1CSCc2cccc(c2)CSC[C@@H](C(N)=O)NC(=O)[C@@H]2CCCN2C(=O)[C@H](Cc2ccc(O)cc2)NC(=O)[C@H](Cc2cnc[nH]2)NC(=O)[C@H](CC(=O)O)NC(=O)[C@H](Cc2c[nH]c3ccccc23)NC(=O)[C@H](Cc2c[nH]c3ccc(F)cc23)NC(=O)CNC(=O)[C@H](CCCCN)NC1=O (Ac-CKG[Trp(5-F)]WDHYPC-NH2; linker 1-10 via mXylylene) | 1070 nM |
| CC(=O)N[C@H]1CSCc2cccc(c2)CSC[C@@H](C(N)=O)NC(=O)[C@@H]2CCCN2C(=O)[C@H](Cc2ccc(O)cc2)NC(=O)[C@H](Cc2cnc[nH]2)NC(=O)[C@H](CC(=O)O)NC(=O)[C@H](Cc2c[nH]c3ccc(F)cc23)NC(=O)[C@H](Cc2c[nH]c3ccc(F)cc23)NC(=O)CNC(=O)[C@H](CCCCN)NC1=O (Ac-CKG[Trp(5-F)][Trp(5-F)]DHYPC-NH2; linker 1-10 via mXylylene) | 47.1 nM |
| CC(=O)N[C@@H](Cc1cnc[nH]1)C(=O)N(C)[C@@H](Cc1ccc(F)cc1)C(=O)N[C@H]1CSCc2cccc(c2)CSC[C@@H](C(N)=O)NC(=O)[C@@H]2CCCN2C(=O)[C@H](Cc2ccc(O)cc2)NC(=O)[C@H](Cc2cnc[nH]2)NC(=O)[C@H](CC(=O)O)NC(=O)[C@H](Cc2c[nH]c3ccc(F)cc23)NC(=O)[C@H](Cc2c[nH]c3ccc(F)cc23)NC(=O)CNC(=O)[C@H](CCCCN)NC1=O (Ac-H[NMePhe(4-F)]CKG[Trp(5-F)][Trp(5-F)]DHYPC-NH2; linker 3-12 via mXylylene) | 956 nM |
| CCCCC(NC(C)=O)C(=O)N[C@H]1CSCc2cccc(c2)CSC[C@@H](C(N)=O)NC(=O)[C@H]([C@@H](C)O)NC(=O)[C@H](CCC)NC(=O)[C@H](Cc2ccc(O)cc2)NC(=O)[C@H](CCC(=O)O)NC(=O)[C@H](CCC)NC(=O)[C@H](Cc2c[nH]c3ncccc23)NC(=O)[C@H]([C@@H](C)O)NC(=O)[C@H](Cc2cnc[nH]2)NC(=O)[C@H](Cc2ccc(O)cc2)NC(=O)[C@H](C(C)(C)C)NC1=O (some centres undefined) (Ac-[ξNle]C[Tle]YHT[Trp(7-aza)][Nva]EY[Nva]TC-NH2; linker 2-13 via mXylylene) | 134 nM |
| C[C@@H]1NC(=O)[C@H](CCCCN)NC(=O)CCSCc2cccc(c2)CSC[C@@H](C(N)=O)NC(=O)[C@@H]2CCCN2C(=O)[C@H](Cc2ccc(O)cc2)NC(=O)[C@H](Cc2cnc[nH]2)NC(=O)[C@H](CC(=O)O)NC(=O)[C@H](Cc2c[nH]c3ccc(F)cc23)NC(=O)[C@H](Cc2c[nH]c3ccc(F)cc23)NC1=O ([Mpa]KA[Trp(5-F)][Trp(5-F)]DHYPC-NH2; linker 1-10 via mXylylene) | > 48000 nM |
| C[C@@H]1NC(=O)CNC(=O)[C@H](CCCCN)NC(=O)CCSCc2cccc(c2)CSC[C@@H](C(N)=O)NC(=O)[C@@H]2CCCN2C(=O)[C@H](Cc2ccc(O)cc2)NC(=O)[C@H](Cc2cnc[nH]2)NC(=O)[C@H](CC(=O)O)NC(=O)[C@H](Cc2c[nH]c3ccc(F)cc23)NC1=O ([Mpa]KGA[Trp(5-F)]DHYPC-NH2; linker 1-10 via mXylylene) | 656 nM |
| NCCCC[C@@H]1NC(=O)CCSCc2cccc(c2)CSC[C@@H](C(N)=O)NC(=O)[C@@H]2CCCN2C(=O)[C@H](Cc2ccc(O)cc2)NC(=O)[C@H](Cc2c[nH]cn2)NC(=O)[C@H](CC(=O)O)NC(=O)[C@H](Cc2c[nH]c3ccc(F)cc23)NC(=O)[C@H](Cc2ccc(-c3ccccc3)cc2)NC(=O)CNC1=O ([Mpa]KG[Bip][Trp(5-F)]DHYPC-NH2; linker 1-10 via mXylylene) | 29300 nM |
| CN1C(=O)CNC(=O)[C@H](CCCCN)NC(=O)CCSCc2cccc(c2)CSC[C@@H](C(N)=O)NC(=O)[C@@H]2CCCN2C(=O)[C@H](Cc2ccc(O)cc2)NC(=O)[C@H](Cc2cnc[nH]2)NC(=O)[C@H](CC(=O)O)NC(=O)[C@H](Cc2c[nH]c3ccc(F)cc23)NC(=O)[C@@H]1Cc1c[nH]c2ccccc12 ([Mpa]KG[NMeW][Trp(5-F)]DHYPC-NH2; linker 1-10 via mXylylene) | > 48000 nM |
| C[C@@H]1NC(=O)[C@H](Cc2c[nH]c3ccc(F)cc23)NC(=O)CNC(=O)[C@H](CCCCN)NC(=O)CCSCc2cccc(c2)CSC[C@@H](C(N)=O)NC(=O)[C@@H]2CCCN2C(=O)[C@H](Cc2ccc(O)cc2)NC(=O)[C@H](Cc2cnc[nH]2)NC(=O)[C@H](CC(=O)O)NC1=O ([Mpa]KG[Trp(5-F)]ADHYPC-NH2; linker 1-10 via mXylylene) | > 48000 nM |
| CN1C(=O)[C@H](Cc2c[nH]c3ccc(F)cc23)NC(=O)CNC(=O)[C@H](CCCCN)NC(=O)CCSCc2cccc(c2)CSC[C@@H](C(N)=O)NC(=O)[C@@H]2CCCN2C(=O)[C@H](Cc2ccc(O)cc2)NC(=O)[C@H](Cc2cnc[nH]2)NC(=O)[C@H](CC(=O)O)NC(=O)[C@@H]1Cc1c[nH]c2ccccc12 ([Mpa]KG[Trp(5-F)][NMeW]DHYPC-NH2; linker 1-10 via mXylylene) | > 48000 nM |
| C[C@@H]1NC(=O)[C@H](Cc2c[nH]c3ccc(F)cc23)NC(=O)[C@H](Cc2c[nH]c3ccc(F)cc23)NC(=O)CNC(=O)[C@H](CCCCN)NC(=O)CCSCc2cccc(c2)CSC[C@@H](C(N)=O)NC(=O)[C@@H]2CCCN2C(=O)[C@H](Cc2ccc(O)cc2)NC(=O)[C@H](Cc2cnc[nH]2)NC1=O ([Mpa]KG[Trp(5-F)][Trp(5-F)]AHYPC-NH2; linker 1-10 via mXylylene) | 427 nM |
| C[C@@H]1NC(=O)[C@H](CC(=O)O)NC(=O)[C@H](Cc2c[nH]c3ccc(F)cc23)NC(=O)[C@H](Cc2c[nH]c3ccc(F)cc23)NC(=O)CNC(=O)[C@H](CCCCN)NC(=O)CCSCc2cccc(c2)CSC[C@@H](C(N)=O)NC(=O)[C@@H]2CCCN2C(=O)[C@H](Cc2ccc(O)cc2)NC1=O ([Mpa]KG[Trp(5-F)][Trp(5-F)]DAYPC-NH2; linker 1-10 via mXylylene) | 525 nM |
| C[C@@H]1NC(=O)[C@H](Cc2cnc[nH]2)NC(=O)[C@H](CC(=O)O)NC(=O)[C@H](Cc2c[nH]c3ccc(F)cc23)NC(=O)[C@H](Cc2c[nH]c3ccc(F)cc23)NC(=O)CNC(=O)[C@H](CCCCN)NC(=O)CCSCc2cccc(c2)CSC[C@@H](C(N)=O)NC(=O)[C@@H]2CCCN2C1=O ([Mpa]KG[Trp(5-F)][Trp(5-F)]DHAPC-NH2; linker 1-10 via mXylylene) | > 48000 nM |
